In ChEMBL document CHEMBL1129112, “Antioxidant and cholesterol lowering properties of 2,6-DI-t-butyl-4-[(dimethylphenylsilyl)methyloxy]phenol and derivatives: A new class of anti-atherogenic compounds” (1996):

What was measured:
Assay type in all cases: functional
[1] = species on record: Oryctolagus cuniculus; test: Total cholesterol present in New Zealand white rabbits fed with control diet (100 g/day) for seven days
[2] = test system: Oryctolagus cuniculus; test: High density lipoprotein (HDL) percent control of cholesterol after administration in rabbits.; parameters: concentration or dose not given beside the values
[3] = test system: Oryctolagus cuniculus; test: Low density lipoprotein (LDL) percent control of cholesterol after administration in rabbits.; parameters: concentration or dose not given beside the values
[4] = species on record: Oryctolagus cuniculus; test: The compound was tested for antioxidant activity against serum thiobarbituric acid relative substances (TBARS),
[5] = test system: Oryctolagus cuniculus; test: Total percent control of cholesterol after administration in rabbits.; parameters: concentration or dose not given beside the values
[6] = species on record: Oryctolagus cuniculus; test: Tested for antioxidant activity against serum thiobarbituric acid relative substances (TBARS),

| Compound | Activity [1] [mg/dL] | Control [2] [%] | Control [3] [%] | Control [4] [%] | Control [5] [%] | Control [6] [%] |
| --- | --- | --- | --- | --- | --- | --- |
| COc1ccccc1[Si](C)(C)COc1cc(C(C)(C)C)c(O)c(C(C)(C)C)c1 | 235 | 217 | 61 | 75 | 77 |  |
| CC(C)(C)c1cc(SC[Si](C)(C)c2ccccc2)cc(C(C)(C)C)c1O | 119 | 75 | 42 |  | 52 | 17 |
| COc1ccc([Si](C)(C)COc2cc(C(C)(C)C)c(O)c(C(C)(C)C)c2)cc1 | 153 | 123 | 66 | 60 | 54 |  |
| CC(C)(C)c1cc(OC[Si](C)(C)c2ccc(Cl)cc2)cc(C(C)(C)C)c1O | 247 | 109 | 89 | 57 | 87 |  |
| CC(C)(C)c1cc(OC[Si](C)(C)c2ccccc2)cc(C(C)(C)C)c1O | 165 | 81 | 69 | 28 | 72 |  |
